{"source": "patent US11241448B2", "about": "“Methods for cancer therapy” (Millennium Pharmaceuticals, Inc., priority 2014, dated 2022)", "key": {"[1]": {"settings": "upon contact with either plasma or aqueous solutions; cited from earlier work"}, "tumor xenografts": {"tested_on": "tumor xenografts", "settings": "in contrast to bortezomib; cited from earlier work"}, "[2]": {"target": "β1 site of the 20S proteasome (Homo sapiens, UniProt P28072)", "settings": "at higher concentrations; cited from earlier work"}, "[3]": {"tested_on": "patients with relapsed, refractory multiple myeloma", "test": "Exposure-response logistic regression analyses, phase 1 study of weekly single-agent ixazomib", "format": "in vivo, human", "settings": "starting dose 3.0 mg weekly", "source_text": "The methods and results of these analyses are described below.\nThe metric of exposure (Ex) was AUC per day (derived from individual clearance values using population pharmacokinetics) for both exposure logistic regression analyses Ex/S and Ex/E. Ex/S analysis was done on seven adverse events (AEs): non-hematologic (non-H) (fatigue, rash, peripheral neuropathy, diarrhea) and hematologic (H) (anemia, thrombocytopenia, neutropenia). The non-hematologic adverse events data were categorized into grade≥2 vs. grade≤1 groups while hematologic adverse events data were grouped into grade≥3 vs. grade≤2. The data were categorized in this way as maintenance treatment should have a tolerable adverse events profile and contribute to acceptable quality of life. Different cut-offs were used for hematologic and non-hematologic adverse events because grade 3 hematologic adverse events may have less impact on quality of life and be more manageable than grade 2 non-hematologic adverse events such as diarrhea. For exposure efficacy (Ex/E), data were categorized as: ≥stable disease (SD) vs. progressive disease (PD). Clinical benefit rate including SD achieved in relapsed or refractory patients may be a meaningful predictor of expected response in a maintenance setting. The logistic regression analyses were done using SPLUS software version 8.1."}, "[4]": {"tested_on": "multiple myeloma patients who completed induction therapy", "test": "Clinical study of oral single-agent ixazomib maintenance therapy", "format": "in vivo, human", "source_text": "These patients completed induction therapy and progressed to the maintenance phase."}, "[5]": {"target": "β2 site of the 20S proteasome (Homo sapiens, UniProt Q99436)", "settings": "at higher concentrations; cited from earlier work"}, "kinases": {"tested_on": "kinases", "settings": "read-out: IC50 values against kinases; cited from earlier work"}, "[6]": {"settings": "in contrast to bortezomib; cited from earlier work"}, "β5 proteasome": {"target": "β5 proteasome (Homo sapiens, UniProt P28074)", "settings": "in contrast to bortezomib; cited from earlier work"}, "receptors": {"target": "receptors", "settings": "read-out: IC50 values against receptors; cited from earlier work"}, "[7]": {"tested_on": "patients with advanced solid tumors, lymphoma, RRMM, and relapsed or refractory AL amyloidosis", "settings": "cited from earlier work"}, "[8]": {"settings": "of 10 patients who improved during maintenance"}}, "note": "Counter-ions that a name gives are not always drawn.", "data": [{"smiles": "CC(C)C[C@H](NC(=O)CNC(=O)c1cc(Cl)ccc1Cl)B1OC(=O)C(CC(=O)O)(CC(=O)O)O1", "note": "[ixazomib citrate]", "values": [{"measurement": "hydrolysis to ixazomib", "setting": "[1]", "result": "rapidly hydrolyzes"}]}, {"smiles": "CC(C)C[C@H](NC(=O)CNC(=O)c1cc(Cl)ccc1Cl)B(O)O", "note": "[ixazomib]", "values": [{"measurement": "antitumor activity in tumor xenografts", "setting": "tumor xenografts", "result": "antitumor activity in a broader range of tumor xenografts"}, {"measurement": "inhibition of activity of the β1 site", "setting": "[2]", "result": "also inhibits the activity"}, {"measurement": "model-predicted clinical benefit rate (≥SD)", "setting": "[3]", "result": "~33", "unit": "%"}, {"measurement": "model-predicted incidence of grade≥2 diarrhea", "setting": "[3]", "result": 19, "unit": "%"}, {"measurement": "model-predicted incidence of grade≥2 fatigue", "setting": "[3]", "result": 19, "unit": "%"}, {"measurement": "model-predicted incidence of grade≥2 rash", "setting": "[3]", "result": 16, "unit": "%"}, {"measurement": "model-predicted incidence of grade≥3 neutropenia", "setting": "[3]", "result": 10, "unit": "%"}, {"measurement": "model-predicted incidence of grade≥3 thrombocytopenia", "setting": "[3]", "result": 22, "unit": "%"}, {"measurement": "survival of patients who received maintenance", "setting": "[4]; after follow-up of 25.1-33.9 months", "result": "alive"}, {"measurement": "best overall response: complete response (CR) or better, percent of patients", "setting": "[4]; n=21, maintenance therapy", "result": 52, "unit": "%"}, {"measurement": "best overall response: very good partial response (VGPR) or better, percent of patients", "setting": "[4]; n=21, maintenance therapy", "result": 71, "unit": "%"}, {"measurement": "median duration of response", "setting": "[4]; n=21, range 6.7-31.18", "result": 21.65, "unit": "months"}, {"measurement": "improved response CR to sCR, patients", "setting": "[4]; [8]", "result": "2/10"}, {"measurement": "improved response VGPR to CR, patients", "setting": "[4]; [8]", "result": "5/10"}, {"measurement": "improved response VGPR to near-CR (nCR), patients", "setting": "[4]; [8]", "result": "2/10"}, {"measurement": "improved response VGPR to stringent complete response (sCR), patients", "setting": "[4]; [8]", "result": "1/10"}, {"measurement": "median time to first response (≥rapid response “PR”)", "setting": "[4]; range 0.92-5.78", "result": 0.99, "unit": "months"}, {"measurement": "median time to best response", "setting": "[4]; range 1.02-24.74", "result": 7.46, "unit": "months"}, {"measurement": "inhibition of activity of the β2 site", "setting": "[5]", "result": "also inhibits the activity"}, {"measurement": "IC50", "setting": "kinases", "result": "> 10", "unit": "µM"}, {"measurement": "tissue penetration", "setting": "[6]", "result": "more prolonged tissue penetration"}, {"measurement": "dissociation rate from the proteasome", "setting": "β5 proteasome", "result": "faster dissociation rate"}, {"measurement": "IC50", "setting": "receptors", "result": "> 10", "unit": "µM"}, {"measurement": "clinical activity", "setting": "[7]; advanced solid tumors, lymphoma, RRMM, AL amyloidosis", "result": "early signs of activity"}, {"measurement": "emerging safety profile / tolerability", "setting": "[7]; clinical studies", "result": "generally well tolerated"}, {"measurement": "toxicity profile", "setting": "[7]; clinical studies", "result": "favorable toxicity profile with low rates of peripheral neuropathy"}]}]}
